Experimental data published in the NIST ThermoML archive (doi:10.1016/j.fluid.2017.09.019).

Assay: wn = mass fraction of the nth substance listed
Details: 101 kPa, Liquid; for viscosity: Concentric cylinders viscometry; for mass density: Vibrating tube method

CC(O)CN(C)C (stereo not given) [1-(dimethylamino)-2-propanol] + O
Details | mass density, 298.15 K [kg/m3] | mass density, 303.15 K [kg/m3] | mass density, 308.15 K [kg/m3] | mass density, 313.15 K [kg/m3] | viscosity, 298.15 K [mPa·s] | viscosity, 303.15 K [mPa·s] | viscosity, 308.15 K [mPa·s] | viscosity, 313.15 K [mPa·s]
w1 = 0.2 | 988.2 | 985.7 | 983 | 980.4 | 2.407 | 2.018 | 1.738 | 1.509
w1 = 0.25 | 986.5 | 983.5 | 980.6 | 977.5 | 2.995 | 2.51 | 2.115 | 1.803
w1 = 0.3 | 984.4 | 981 | 977.8 | 973.6 | 3.886 | 3.097 | 2.559 | 2.161
w1 = 0.35 | 979.5 | 976.1 | 972.4 | 968.4 | 4.735 | 3.805 | 3.115 | 2.587
w1 = 0.4 | 976.4 | 972.1 | 968.3 | 964.1 | 5.67 | 4.54 | 3.647 | 3.016
w1 = 0.45 | 970.3 | 966.4 | 961.8 | 957.8 | 6.602 | 5.187 | 4.156 | 3.375
w1 = 0.5 | 966.2 | 962.1 | 957.7 | 953.4 | 7.632 | 5.965 | 4.75 | 3.851
w1 = 0.6 | 949.4 | 944.6 | 940 | 935.4 | 8.956 | 6.964 | 5.487 | 4.387
w1 = 0.7 | 930.9 | 925.3 | 919.8 | 915.8 | 9.925 | 7.654 | 6.02 | 4.853
w1 = 0.8 | 908.8 | 903.5 | 899.1 | 894.1 | 8.482 | 6.762 | 5.106 | 4.197
w1 = 0.9 | 879.8 | 875 | 870.1 | 865.3 | 5.585 | 4.935 | 3.396 | 2.909
w1 = 0.95 | 863.9 | 858.9 | 854.1 | 849.3 | 3.79 | 3.199 | 2.463 | 2.048
w1 = 0.96 | 858.1 | 853.1 | 848.4 | 843.6 | 3.282 | 2.783 | 2.211 | 1.835
w1 = 0.98 | 852.4 | 847.3 | 842.4 | 837.6 | 2.094 | 1.875 | 1.499 | 1.322
w1 = 1 | 845.4 | 840.3 | 835.5 | 830.7 | 1.332 | 1.183 | 1.059 | 0.955
